The values below come from patent publication US20100324086A1, “COMPOUNDS AND METHODS” (Novasaid AB, priority 2008, published 2010).

Each structure is given as a SMILES string.

The target in this assay is T1, recombinant, membrane-bound mPGES-1 (Homo sapiens, UniProt O14684).
T1 sequence (O14684 1-152): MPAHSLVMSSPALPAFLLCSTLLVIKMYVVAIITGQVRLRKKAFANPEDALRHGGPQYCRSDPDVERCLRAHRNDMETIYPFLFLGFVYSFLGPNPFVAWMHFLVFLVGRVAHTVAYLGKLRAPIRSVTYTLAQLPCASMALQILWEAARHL
Briefly: Thiobarbituric acid assay (TBA-MDA assay), inhibition of mPGES-1. It is filed as biochemical. The following applies: remaining PGH2 measured at 535 nm. From the text:
Malondialdehyde is a product of lipid peroxidation and reacts with thiobarbituric acid forming a red product that absorbs at 535 nm (W. G. Niehaus, Jr and B. Samuelsson, Eur. J. Biochem 6, 126 (1968). The extinction coefficient of the TBA-MDA conjugate is 1.56×10^5 M^−1 cm^−1 (E. D. Wills. Biochem. J. 113, 315 (1969).
The method used for detection of inhibition of mPGES-1 is based on the detection of the amount of remaining PGH2. This method was described more than 20 years ago by Basevich et al (Bioorg. Khim. 1983, 9(5), 658-665.
The assay used was a modified variant and used citric acid instead of the TCA-TBA-HCl reagent described in the original assay. In this assay recombinant, membrane-bound mPGES-1 was incubated with PGH2. The reaction was stopped by adding citric acid with a final pH of 3 and a large excess of FeCl2 (20 mM) to convert any remaining PGH2 into MDA and […]. TBA reagent was finally added (0.67%) and the samples were heated at 80° C. for 30 min. The absorbance of the conjugate was measured at 535 nm.
The product of mPGES-1 (PGE2) was not measured directly in this assay, but rather the remaining substrate (PGH2) indirectly by adding FeCl2 that converts PGH2 into […] and 12-HHT. As a positive control a known mPGES-1 inhibitor, MK-886, was used and the new inhibitors were compared with the inhibition of MK-886 (% of MK-886 inhibition).
As to `C[C@@H](NC(=O)c1cccc(NC(=O)c2ccccc2I)c1)c1cccc2ccccc12` [Compound 96, 2-Iodo-N-[3-((R)-1-naphthalen-1-A-ethylcarbamoyl)-phenyl]-benzamide], the IC50 came out at 230 nM. The figure for `O=C(Nc1nc2ccccc2[nH]1)c1cccc(NC(=O)c2ccccc2Cl)c1` [Compound 13, 3-(2-Chloro-benzoylamino)-N-(1H-benzimidazol-2-yl)-benzamide] is 1300 nM; for `C[C@H](NC(=O)c1cccc(NC(=O)c2ccccc2Br)c1)c1cccc2ccccc12` [Compound 72, 2-Bromo-N-[3-((S)-1-naphthalen-1-yl-ethylcarbamoyl)-phenyl]-benzamide] it is 230 nM.

In the case of `O=C(NC(c1ccccc1)c1ccccc1)c1cccc(NC(=O)c2ccccc2Cl)c1` [Compound 6, 3-(2-Chloro-benzoylamino)-N-(diphenylyl-methyl)-benzamide], the concentration for half-maximal inhibition (IC50) came out at 300 nM.

On to `O=C(Nc1ccc2ncsc2c1)c1cccc(NC(=O)c2ccccc2Cl)c1` [Compound 14, 3-(2-Chloro-benzoylamino)-N-(benzothiazol-6-yl)-benzamide], for which the IC50 is 900 nM. Under `O=C(NC1CCCCCC1)c1cccc(NC(=O)c2c(Cl)cccc2Cl)c1` [Compound 55, 2,6-Dichloro-N-(3-cycloheptylcarbamoyl-phenyl)-benzamide] stands 630 nM.

For the molecule `O=C(NC1CCCCCC1)c1cccc(NC(=O)c2ccccc2F)c1` [Compound 63, N-(3-Cycloheptylcarbamoyl-phenyl)-2-fluorobenzamide], the IC50 was determined as 460 nM. The figure for `O=C(Nc1ccccn1)c1cccc(NC(=O)c2ccccc2Cl)c1` [Compound 12, 3-(2-Chloro-benzoylamino)-N-(pyridine-2-yl)-benzamide] is 1300 nM. The figure for `O=C(NC1CCCCCC1)c1cccc(NC(=O)c2ccccc2Br)c1` [Compound 68, 2-Bromo-N-(3-cycloheptylcarbamoyl-phenyl)-benzamide] is 180 nM; for `O=C(NCc1ccccc1)c1cccc(NC(=O)c2ccccc2Cl)c1` [Compound 2, 3-(2-Chloro-benzoylamino)-N-benzyl-benzamide] it is 5800 nM; for `O=C(NCc1ccccc1Cl)c1cccc(NC(=O)c2ccccc2C(F)(F)F)c1` [Compound 143, N-(2-Chloro-benzyl)-3-(2-trifluoromethyl-benzoylamino)-benzamide] it is 220 nM.

Regarding `O=C(NCc1ccccc1)c1cccc(NC(=O)c2ccccc2C(F)(F)F)c1` [Compound 141, N-(Benzyl)-3-(2-trifluoromethyl-benzoylamino)-benzamide], the IC50 turned out to be 280 nM.

For the molecule `O=C(Nc1ccc2cccc(O)c2n1)c1cccc(NC(=O)c2ccccc2C(F)(F)F)c1` [Compound 140, N-(8-hydroxy-quinolin-2-yl)-3-(2-trifluoromethyl-benzoylamino)-benzamide], the IC50 is 1900 nM. Under `Cc1cc(NC(=O)c2cccc(NC(=O)c3ccccc3Cl)c2)c2ccccc2n1` [Compound 3, 3-(2-Chloro-benzoylamino)-N-(2-methyl-quinolin-4-yl)-benzamide] stands 1100 nM. Under `O=C(NCc1ccccc1Br)c1cccc(NC(=O)c2ccccc2C(F)(F)F)c1` [Compound 135, N-(2-Bromo-benzyl)-3-(2-trifluoromethyl-benzoylamino)-benzamide] stands 65 nM; under `CC(=O)Oc1ccccc1C(=O)Nc1cccc(C(=O)Nc2ccc3ccccc3n2)c1` [Compound 50, Acetic acid 2-[3-(quinolin-2-ylcarbamoyl)-phenylcarbamoyl]-phenyl ester], 3000 nM; under `C[C@H](NC(=O)c1cccc(NC(=O)c2ccccc2Cl)c1)c1cccc2ccccc12` [Compound 85, 2-Chloro-N-[3-((S)-1-naphthalen-1-yl-ethylcarbamoyl)-phenyl]-benzamide], 370 nM. Under `O=C(NC1CCCCCC1)c1cccc(NC(=O)c2ccccc2I)c1` [Compound 69, N-(3-Cycloheptylcarbamoyl-phenyl)-2-iodo-benzamide] stands 260 nM; under `COc1cccc(OC)c1C(=O)Nc1cccc(C(=O)N[C@@H](C)c2cccc3ccccc23)c1` [Compound 76, 2,6-Dimethoxy-N-[3-((S)-1-naphthalen-1-yl-ethylcarbamoyl)-phenyl]-benzamide], 4100 nM. With `CC(=O)Oc1ccccc1C(=O)Nc1cccc(C(=O)NC2CCCCCC2)c1` [Compound 66, Acetic acid 2-(3-cycloheptylcarbamoyl-phenylcarbamoyl)-phenyl ester], the IC50 is 9900 nM. The figure for `O=C(NCc1cccc2c1OCCO2)c1cccc(NC(=O)c2ccccc2C(F)(F)F)c1` [Compound 148, N-(2,3-dihydro-benzo[1,4]dioxin-5-ylmethyl)-3-(2-trifluoromethyl-benzoylamino)-benzamide] is 990 nM; for `C[C@@H](NC(=O)c1cccc(NC(=O)c2ccccc2F)c1)c1cccc2ccccc12` [Compound 88, 2-Fluoro-N-[3-((R)-1-naphthalen-1-yl-ethylcarbamoyl)-phenyl]-benzamide] it is 2300 nM. Under `O=C(Nc1cccc(CNCc2ccccc2C(F)(F)F)c1)c1ccccc1C(F)(F)F` [Compound 125, 2-Trifluoromethyl-N-{3-[(2-trifluoromethyl-benzylamino)-methyl]-phenyl}-benzamide] stands 1800 nM.

In the case of `O=C(NCc1ccccc1OC(F)(F)F)c1cccc(NC(=O)c2ccccc2C(F)(F)F)c1` [Compound 147, N-(2-Trifluoromethoxy-benzyl)-3-(2-trifluoromethyl-benzoylamino)-benzamide], the concentration for half-maximal inhibition (IC50) came out at 110 nM.

With `C[C@@H](NC(=O)c1cccc(NC(=O)c2ccccc2Br)c1)c1cccc2ccccc12` [Compound 87, 2-Bromo-N-[3-((R)-1-naphthalen-1-yl-ethylcarbamoyl)-phenyl]-benzamide], the IC50 was 380 nM. As to `O=C(NCc1ccccc1-c1ccccc1)c1cccc(NC(=O)c2ccccc2C(F)(F)F)c1` [Compound 136, N-(2-Phenyl-benzyl)-3-(2-trifluoromethyl-benzoylamino)-benzamide], the IC50 worked out at 200 nM.

As for `Cc1ccccc1C(=O)Nc1cccc(C(=O)Nc2ccc3ccccc3n2)c1` [Compound 44, 3-(2-Methyl-benzoylamino)-N-quinolin-2-yl-benzamide], the IC50 worked out at 650 nM. On to `O=C(NC1CCCc2ccccc21)c1cccc(NC(=O)c2ccccc2Cl)c1` (stereo not shown) [Compound 35, 3-(2-Chloro-benzoylamino)-N-(1,2,3,4-tetrahydro-naphthalen-1-yl)-benzamide], for which the 50% inhibitory concentration (IC50) came to 860 nM. The figure for `CCc1ccccc1C(=O)Nc1cccc(C(=O)Nc2ccc3ccccc3n2)c1` [Compound 52, 3-(2-Ethyl-benzoylamino)-N-quinolin-2-yl-benzamide] is 6900 nM; for `O=C(NCc1cccc2ccccc12)c1cccc(NC(=O)c2c(Cl)cccc2Cl)c1` [Compound 105, 2,6-Dichloro-N-{3-[(naphthalen-1-ylmethyl)-carbamoyl]-phenyl}-benzamide] it is 520 nM. Under `Cc1ccccc1CNC(=O)c1cccc(NC(=O)c2ccccc2C(F)(F)F)c1` [Compound 142, N-(2-Methyl-benzyl)-3-(2-trifluoromethyl-benzoylamino)-benzamide] stands 1000 nM.
